From patent publication US11839873B2, “Valveless fluidic switching flowchip and uses thereof” (Protein Fluidics, Inc., priority 2018, dated 2023) come the findings set out here.

Assay [1] deals with THP-1 cells stimulated with PMA and LPS (IL-8, IL-1β, TNFα secretion). In words: THP-1 cell cytokine secretion assay, microfluidic flowchip ELISA. In kind it is cell-based, human. As to conditions: for THP-1 cellular inflammation response as shown by upregulation of IL-8: THP-1 cells stimulated with PMA and LPS for 20 hours at 37° C., concentration dependent effect of compound; for cytokine expression: THP-1 cells treated with compound prior to PMA and LPS activation, cytokine secretion quantified. On the technique in general: ELISA stands for enzyme-linked immunosorbent assay.
Method: THP-1 cells were stimulated with PMA and LPS for 48 hours. […] To evaluate anti-inflammatory compounds, cells were treated with the kinase inhibitors SB202190 and PDTC, and the antibiotic moxifloxacin prior to activation. Then, inhibition of the inflammation responses by those anti-inflammatory compounds was measured by quantifying cytokine secretion.
A microfluidic flowchip was designed containing multiple reservoirs and nodes that accommodate the reagents required to perform an ELISA assay. The assay channel (from Well 3 to Well 9) has a cross-section of 50 μm by 300 μm and length of 25 mm while the other transfer channels have cross-sections of 50 μm by 50 μm. […] The flowchip was made out of COC using injection molding and the bottom surface was sealed with a COC film. Each reservoir has a capacity of ˜30 μl and was filled with 20 μl of the appropriate assay reagent. Assays were performed using a single protocol for all reagents as shown in FIG. 22 carried out in the following order: Capture Antibody (W3), Blocking Buffer (W2), Sample (W1), Primary Antibody (W4), Avidin-HRP (W5), Wash Buffer (Wash), Substrate (W7), and Stop Solution (W6).
The Capture and Primary antibodies are specific to each immunoassay and matched antibody pairs for the IL-8, IL-β, and TNFα assays were obtained from a commercial source (Biolegend, San Diego, CA). The buffers and Stop Solution are common to all three assays and were made using materials obtained from Sigma-Aldrich. The Avidin-HRP (Biolegend, San Diego, CA) and Substrate (Abcam, Cambridge, MA) were also common to each assay. The Capture Ab's were used at a concentration of 10 μg/ml and made by diluting stock Ab in a Coating Buffer solution containing phosphate buffered saline (PBS). The Primary Ab's were used at a concentration of 1 μg/ml and made by diluting stock Ab in an Assay Buffer solution containing PBS, bovine serum albumin (BSA), and Tween20. The Blocking Buffer consisted of BSA diluted in PBS. The Avidin-HRP was also diluted in Assay Buffer and used at a concentration of 200 ng/ml. The Substrate solution was used as provided.
Each fluid transfer step, from a source well to a destination well, followed a fluid transfer rule that included a HP portion to move the majority of fluid through a given channel followed by a longer LP portion to empty the source well without emptying the channel as described previously. The HP portion typically was between 5 and 20 sec while the LP portion typically was between 30 and 300 sec. Incubation in the assay channel was done using a different fluid transfer rule that included successive short HP transfers followed by a delay between transfers to allow interaction of the reagents with the assay channel walls. […]

Assay [2] relates to HUVECs stimulated with an inflammatory cytokine mixture of TNF-α, IL-1β, and IFN-γ (IL-8, IL-6, MCP-1 upregulation). Nature of the assay: Multiparametric HUVEC inflammation assay, secreted cytokines quantified by microfluidic flowchip ELISA. In kind it is cell-based, human. As to conditions: for HUVEC inflammation response as shown by upregulation of IL-8, IL-6, and MCP-1: HUVECs stimulated with TNF-α, IL-1β, IFN-γ mixture for 20 hours at 37° C., concentration dependent effect of compound; for IL-8 expression: HUVECs, compounds added 1 hour prior to inflammatory cytokine mixture, 20 hours at 37° C.
From the text: We present results from a multiparametric primary human cell-based assay that uses immunoassays for secreted cytokines to evaluate the effect of different mediators on inflammatory response. Expression of the inflammation markers from primary human umbilical vein endothelial cells (HUVEC) stimulated with inflammation cytokines (TNF-α, IFN-γ, and IL-1β) was quantified by microfluidic-based ELISAs.
The Capture and Primary antibodies are specific to each immunoassay and matched antibody pairs for the MCP-1, IL-8, and IL-6 assays were obtained from a commercial source (Biolegend, San Diego, CA). The buffers and Stop Solution are common to all three assays and were made using materials obtained from Sigma-Aldrich. The SA-HRP (Becton Dickenson, San Diego, CA) and Substrate (Abcam, Cambridge, MA) were also common to each assay. The Capture Ab's were used at a concentration of 10 μg/ml and made by diluting stock Ab in a Coating Buffer solution containing phosphate buffered saline (PBS). The Primary Ab's were used at a concentration of 1 μg/ml and made by diluting stock Ab in an Assay Buffer solution containing PBS, bovine serum albumin (BSA), and Tween20. The Blocking Buffer consisted of BSA diluted in PBS. The SA-HRP was also diluted in Assay Buffer and used at a concentration of 200 ng/ml. The Substrate solution was used as provided.

Residues, ends and D or L forms follow the SMILES beside them. *: point of attachment. Cbz = O=C(OCc1ccccc1)*

Consider `S=C(S)N1CCCC1` [PDTC], for which, in assay [1], the “THP-1 cellular inflammation response as shown by upregulation of IL-8” value is “clearly diminished” and the cytokine expression result was “Concentration-dependent decreases”.

With `CC(C)C[C@@H](C=O)NC(=O)[C@H](CC(C)C)NC(=O)[C@H](CC(C)C)NC(=O)OCc1ccccc1` [MG-132] (Cbz-Leu-Leu-Leu-aldehyde), in assay [2], the “HUVEC inflammation response as shown by upregulation of IL-8, IL-6, and MCP-1” value (“HUVEC inflammation response as shown” below) is listed as “clearly diminished”; the IL-8 expression result is reported as “not affected within the concentration range studied”.

Regarding `N#CC(C#N)=Cc1ccc([N+](=O)[O-])c(O)c1` [AG-126], in assay [2], the “HUVEC inflammation response as shown” value is recorded as “clearly diminished”; the IL-8 expression entry is “reduced at similar concentrations”.

As for `Oc1ccc(-c2nc(-c3ccncc3)c(-c3ccc(F)cc3)[nH]2)cc1` [SB202190], in assay [1], the “THP-1 cellular inflammation response as shown by upregulation of IL-8” value is on record as “clearly diminished” and the cytokine expression result is listed as “Concentration-dependent decreases”. Besides, in assay [2], the “HUVEC inflammation response as shown” value was “clearly diminished”; the IL-8 expression result is recorded as “reduced at similar concentrations”.
